The results in this text go back to ChEMBL document CHEMBL1151346, “Alkaloids of Thalictrum XXXIV. Three New Alkaloids, Thalmirabine, Thalistine, and O-Methylthalibrine, and Others From Roots of Thalictrum minus Race B” (1980).

In brackets after ≈: the same amount, converted by molar mass.

What all share (assay type): functional
The subject of assay [1] is Mycolicibacterium smegmatis. As to the kind of experiment: Antimicrobial activity against Mycobacterium smegmatis.
For assay [2], the system named is Candida albicans. The assay is described as follows: Antimicrobial activity against Candida albicans.
Assay [3] concerns Staphylococcus aureus. The assay is described as follows: Antimicrobial activity against Staphylococcus aureus.

For the compound `COc1cc2c(cc1OC)[C@H](Cc1ccc(Oc3cc(C[C@H]4c5cc(OC)c(OC)cc5CCN4C)ccc3OC)cc1)N(C)CC2`, the MIC amounted to 100 µg/mL (≈ 157 µM) in assay [1] and 500 µg/mL (≈ 783 µM) in assay [2].

As to `COc1ccc2cc1Oc1ccc(cc1)C[C@H]1c3c(c(O)c(OC)c(OC)c3Oc3c4c(cc(OC)c3OC)[C@H](C2)N(C)CC4)CCN1C` [THALIMIRABINE], inhibition of growth in assay [1] (MIC) required 100 µg/mL (≈ 150 µM).

On to `COc1ccc(C[C@H]2c3cc(OC)c(OC)c(O)c3CCN2C)cc1Oc1ccc(C[C@H]2c3cc4c(c(OC)c3CCN2C)OCO4)cc1` [THALISTINE], for which the MIC in assay [1] was 100 µg/mL (≈ 150 µM); in assay [3], 1000 µg/mL (≈ 1500 µM).
